{"source": "patent US20130023590A1", "about": "“AQUEOUS COMPOSITIONS COMPRISING RESVERATROL AND METHODS FOR MAKING THEM” (priority 2011, published 2013)", "origin": "cited, not measured here", "key": {"[1]": {"details": "oral, humans"}, "yeast": {"test_system": "yeast", "details": "in the absence of caloric restriction"}, "[2]": {"details": "for solubility in water: with heating"}}, "note": "Where two headings read alike, the source gives them in different places."}
{"smiles": "Oc1ccc(C=Cc2cc(O)cc(O)c2)cc1", "note": "[resveratrol, 3,4′,5-trihydroxystilbene]", "values": [{"measurement": "bioavailability", "setting": "[1]", "value": "very low"}, {"measurement": "extension of replicative lifespan of yeast", "setting": "yeast", "value": 70, "unit": "%"}, {"measurement": "solubility in organic solvents", "setting": "[2]; ethanol, dimethyl sulfoxide or dimethyl formamide", "value": "approximately 65 mg/ml"}, {"measurement": "solubility in water", "setting": "[2]; Sigma-Aldrich Product Information Sheet", "value": 3, "unit": "mg/100 ml"}, {"measurement": "solubility in water", "setting": "[2]; same value restated in ppm", "value": 30, "unit": "ppm"}]}
